From patent US20160324820A1, “PHARMACEUTICAL COMPOSITIONS COMPRISING 15-HEPE AND METHODS OF TREATING ASTHMA AND LUNG DISORDERS USING SAME” (Dignity Sciences Limited, priority 2014, published 2016)

System: Hartley guinea pigs
Assay: Histamine-induced bronchoconstriction following seven days of oral gavage in anesthetized, ventilated guinea pigs
Assay type: in vivo, guinea pig
Details: for Change from baseline Respiratory Resistance (ventilator pressure), Average VP / Change from baseline Respiratory Resistance (ventilator pressure), Average RR: n=3
Source text: In an embodiment, the pharmacodynamics of a composition comprising 15-HEPE as disclosed herein may be examined using a model of a lung disease or disorder. In a more detailed embodiment, the effects of a composition comprising a vehicle, a positive control or 15-HEPE on ventilator pressure in histamine challenged guinea pigs serves as a model for the pharmacodynamics in asthma. In an exemplary method, guinea pigs are first dosed with compositions comprising a vehicle, a positive control or 15-HEPE for seven days. The treated guinea pigs can then be anesthetized and exposed to a nebulized bronchoconstictor to determine if 15-HEPE can reduce the increase in ventilatory pressure induced by a bronchoconstrictor. This serves as an effective model for asthma and other lung diseases. The guinea pig is a reliable animal model in respiratory research due to their respiratory sensitivity and their expression of similar respiratory reactions to those observed in humans. […] Adult male Hartley guinea pigs weighing approximately 450-500 g were acclimated least 5 days before the day of the beginning of the oral gavages. Animals were assigned to one of four groups (low dose, high dose, vehicle and positive control) and were double-housed per group during acclimation period. The test article was formulated using olive oil as the vehicle. A low and a high dose of 15-HEPE (50 mg/kg and 500 mg/kg) was formulated. A 1 mg/ml stock solution of bambuterol was prepared in an aqueous solution, and was then mixed with olive oil in the gavage syringe for the […]. The stock solution was stored at −20° C., but was used at room temperature and was considered stable for the duration of the experiment. A 5 μg/ml stock solution of histamine dihydrochloride (Sigma Aldrich) was prepared in a saline solution (0.9% NaCl). The stock solution was stored at 4° C. The expiration date was set at 14 days after preparation. The concentrations of positive control, (bambuterol 0.27 mg/kg/day) and the hypertensor (histamine 0.184, 0.919 and 1.84 μg/kg) were selected based on literature references. Each group received the designated compound by oral gavage using a 1 ml syringe. The dosing schedule was as follows: • Vehicle (olive oil) • Bambuterol 0.27 mg/kg/day • 15-HEPE 50 mg/kg/day • 15-HEPE 500 mg/kg/day The stock solutions were administered once per day for seven consecutive days. On the seventh dosage day the animals underwent surgery two hours after the oral feeding. All animal care and vivarium maintenance were recorded, with documents kept at the test facility. Guinea pigs were anesthetized with an intraperitoneal injection of urethane (1.5 g/kg). A tracheotomy was performed and the animals were mechanically ventilated throughout the experiment. The ventilatory pressure was recorded and analyzed for signs of bronchospasm. A pulse oxymeter was attached to each animal's hind paw to obtain heart beat and oxygen saturation on the anaesthetized guinea pigs to continuously monitor the general condition of the animals during the surgical procedure. Following baseline measurements, three doses of histamine (0.184, 0.919 and 1.84 μg/kg) were nebulized (constant volume tidal, 60 respirations per minute, 7.5 ml/sec), with an interval of 20 minutes between each dose, or until a steady state was reached. Respiratory resistance, heart rate, and oxygen saturation were monitored continuously for a period of about 1 hour post challenge. At the end of the experiment, the animals were euthanized by exsanguination. Clampfit 10.2.0.14 analysis software (Axon Instruments), installed on networked personal computers running Microsoft Windows was used. Clampfit 10.2.0.14 has been fully validated in the connected context in which it was used. The graphics software for illustrations is Microsoft Office Excel 2007 installed on networked personal computers running Microsoft Windows. […]

[1] = bambuterol 0.27 mg/kg/day gavage 7 days, nebulized histamine 0.184 (μg/kg)
[2] = bambuterol 0.27 mg/kg/day gavage 7 days, nebulized histamine 0.919 (μg/kg)
[3] = bambuterol 0.27 mg/kg/day gavage 7 days, nebulized histamine 1.84 (μg/kg)
[4] = 15-HEPE 500 mg/kg/day gavage 7 days, nebulized histamine 0.184 (μg/kg)
[5] = 15-HEPE 500 mg/kg/day gavage 7 days, nebulized histamine 0.919 (μg/kg)
[6] = 15-HEPE 500 mg/kg/day gavage 7 days, nebulized histamine 1.84 (μg/kg)

CN(C)C(=O)Oc1cc(OC(=O)N(C)C)cc(C(O)CNC(C)(C)C)c1 (stereo not shown) [Bambuterol, bambuterol, reference compound]
Change from baseline Respiratory Resistance (ventilator pressure), Guinea pig #1 [1]: 0.2759 mmHg
Change from baseline Respiratory Resistance (ventilator pressure), Guinea pig #2 [1]: −0.05857 mmHg
Change from baseline Respiratory Resistance (ventilator pressure), Guinea pig #3 [1]: 1.238 mmHg
Change from baseline Respiratory Resistance (ventilator pressure), Average VP [1]: 0.48 mmHg
Change from baseline Respiratory Resistance (ventilator pressure), Guinea pig #1 [2]: 1.099 mmHg
Change from baseline Respiratory Resistance (ventilator pressure), Guinea pig #2 [2]: 1.219 mmHg
Change from baseline Respiratory Resistance (ventilator pressure), Guinea pig #3 [2]: 2.266 mmHg
Change from baseline Respiratory Resistance (ventilator pressure), Average VP [2]: 1.53 mmHg
Change from baseline Respiratory Resistance (ventilator pressure), Guinea pig #1 [3]: 2.215 mmHg
Change from baseline Respiratory Resistance (ventilator pressure), Guinea pig #2 [3]: 1.945 mmHg
Change from baseline Respiratory Resistance (ventilator pressure), Guinea pig #3 [3]: 2.651 mmHg
Change from baseline Respiratory Resistance (ventilator pressure), Average VP [3]: 2.27 mmHg

CCC=CCC(O)C=CC=CCC=CCC=CCCCC(=O)O (stereo not shown) [15-HEPE, 15-Hydroxy-eicosa-5,8,11,13,17-pentaenoic acid]
Change from baseline Respiratory Resistance (ventilator pressure), Guinea pig #1 [4]: 0.2098 mmHg
Change from baseline Respiratory Resistance (ventilator pressure), Guinea pig #2 [4]: 1.657 mmHg
Change from baseline Respiratory Resistance (ventilator pressure), Guinea pig #3 [4]: 0.6489 mmHg
Change from baseline Respiratory Resistance (ventilator pressure), Average RR [4]: 0.84 mmHg
Change from baseline Respiratory Resistance (ventilator pressure), Guinea pig #1 [5]: 0.8494 mmHg
Change from baseline Respiratory Resistance (ventilator pressure), Guinea pig #2 [5]: 1.37 mmHg
Change from baseline Respiratory Resistance (ventilator pressure), Guinea pig #3 [5]: 2.34 mmHg
Change from baseline Respiratory Resistance (ventilator pressure), Average RR [5]: 1.52 mmHg
Change from baseline Respiratory Resistance (ventilator pressure), Guinea pig #1 [6]: 2.169 mmHg
Change from baseline Respiratory Resistance (ventilator pressure), Guinea pig #2 [6]: 1.791 mmHg
Change from baseline Respiratory Resistance (ventilator pressure), Guinea pig #3 [6]: 3.913 mmHg
Change from baseline Respiratory Resistance (ventilator pressure), Average RR [6]: 2.62 mmHg
lung ventilatory pressure (test animals challenged with a bronchoconstrictor, result in words): improve lung ventilatory pressure
